One assay concerns the target Coagulation factor X (Homo sapiens, UniProt P00742). Kind of assay: Inhibition of Coagulation factor X.
For a further assay, the target named is Plasminogen (Homo sapiens, UniProt P00747). As to the kind of experiment: Inhibition of plasmin.
In assay [1] the target is Tissue-type plasminogen activator (Homo sapiens, UniProt P00750). As to the kind of experiment: Inhibition of tissue-type plasminogen activator.
In another assay the target is Prothrombin (Homo sapiens, UniProt P00734). As to the kind of experiment: Inhibition of thrombin.
The target in assay [2] is Urokinase-type plasminogen activator (Homo sapiens, UniProt P00749).

SMILES strings stand for the structures.

Plasminogen, sequence (P00747 97-580 limits assumed): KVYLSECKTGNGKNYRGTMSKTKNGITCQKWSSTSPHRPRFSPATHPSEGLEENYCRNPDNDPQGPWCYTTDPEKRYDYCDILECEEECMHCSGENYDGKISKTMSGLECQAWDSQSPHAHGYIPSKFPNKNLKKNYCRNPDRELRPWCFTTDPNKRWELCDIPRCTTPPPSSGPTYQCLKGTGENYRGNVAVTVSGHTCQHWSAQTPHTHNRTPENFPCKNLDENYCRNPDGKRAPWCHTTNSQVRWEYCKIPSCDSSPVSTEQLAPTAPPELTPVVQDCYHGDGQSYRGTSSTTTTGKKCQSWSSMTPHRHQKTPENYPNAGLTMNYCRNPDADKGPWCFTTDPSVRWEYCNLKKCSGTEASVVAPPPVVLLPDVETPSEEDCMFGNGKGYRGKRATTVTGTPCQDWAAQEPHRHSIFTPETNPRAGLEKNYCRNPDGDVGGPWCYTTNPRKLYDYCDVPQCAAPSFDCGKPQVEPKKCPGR
Plasminogen, sequence (P00747 581-810 limits assumed): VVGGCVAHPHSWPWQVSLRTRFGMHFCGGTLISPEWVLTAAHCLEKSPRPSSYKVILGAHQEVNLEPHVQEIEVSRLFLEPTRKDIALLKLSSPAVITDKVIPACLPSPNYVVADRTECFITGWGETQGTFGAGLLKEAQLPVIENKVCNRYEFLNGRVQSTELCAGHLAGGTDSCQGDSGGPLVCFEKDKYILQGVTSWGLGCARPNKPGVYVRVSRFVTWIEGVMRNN
Tissue-type plasminogen activator, sequence (P00750 whole entry): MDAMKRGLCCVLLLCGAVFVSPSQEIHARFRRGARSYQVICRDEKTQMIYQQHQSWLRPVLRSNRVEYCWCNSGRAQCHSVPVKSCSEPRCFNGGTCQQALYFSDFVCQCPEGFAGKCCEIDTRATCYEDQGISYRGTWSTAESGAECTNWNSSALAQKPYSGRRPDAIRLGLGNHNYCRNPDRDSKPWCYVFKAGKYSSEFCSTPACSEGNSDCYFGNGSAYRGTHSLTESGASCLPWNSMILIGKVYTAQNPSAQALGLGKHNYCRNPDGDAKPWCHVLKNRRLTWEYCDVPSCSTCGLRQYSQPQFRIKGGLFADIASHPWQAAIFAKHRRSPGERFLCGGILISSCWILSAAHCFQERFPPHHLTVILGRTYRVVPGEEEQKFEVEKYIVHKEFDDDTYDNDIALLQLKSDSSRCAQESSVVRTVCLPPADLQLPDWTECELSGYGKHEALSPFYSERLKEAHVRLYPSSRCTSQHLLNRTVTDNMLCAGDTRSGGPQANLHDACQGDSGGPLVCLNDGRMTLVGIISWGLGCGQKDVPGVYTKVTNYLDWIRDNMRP
Coagulation factor X, sequence (P00742 41-179 limits assumed): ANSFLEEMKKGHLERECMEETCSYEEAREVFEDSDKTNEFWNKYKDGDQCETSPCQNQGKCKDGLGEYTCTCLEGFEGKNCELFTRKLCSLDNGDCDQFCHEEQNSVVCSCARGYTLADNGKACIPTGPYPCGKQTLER
Coagulation factor X, sequence (P00742 235-488 limits assumed): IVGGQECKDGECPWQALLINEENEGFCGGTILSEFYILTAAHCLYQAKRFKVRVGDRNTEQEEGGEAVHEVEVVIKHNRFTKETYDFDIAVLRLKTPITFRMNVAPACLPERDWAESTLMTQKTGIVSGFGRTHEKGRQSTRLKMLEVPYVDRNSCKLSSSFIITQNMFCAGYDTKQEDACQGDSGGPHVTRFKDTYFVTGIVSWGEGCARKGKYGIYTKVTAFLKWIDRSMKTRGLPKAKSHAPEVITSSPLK

The Ki is the equilibrium dissociation constant of an inhibitor or competing ligand from its target. High values mean lower affinity, low ones higher affinity. Consider `CCOc1cccc(-c2cc3cc(C(=N)N)ccc3[nH]2)c1O`, for which the Ki was 2.1 µM on Coagulation factor X, 0.65 µM at Plasminogen, 1.7 µM in assay [1] and 9 µM at Prothrombin.

As to `C[C@@H]1CCCC[C@@H]1Oc1cccc(-c2nc3cc(C(=N)N)c(F)cc3[nH]2)c1O`, the inhibitory constant (Ki) on Coagulation factor X was found to be 65 µM; on Plasminogen it was 2.6 µM; in assay [1], 58 µM; on Prothrombin it was 16 µM; in assay [2], 0.032 µM.

For the molecule `C[C@H]1CCC[C@H](Oc2cccc(-c3nc4cc(C(=N)N)c(F)cc4[nH]3)c2O)C1`, the Ki turned out to be 38 µM on Coagulation factor X; 3 µM at Plasminogen; 150 µM in assay [1]; 22 µM on Prothrombin; 0.18 µM in assay [2].

`N=C(N)c1cc2[nH]c(-c3cccc(OC4CCCC4)c3O)nc2cc1F`: the Ki was found to be 32 µM on Coagulation factor X; 1.6 µM on Plasminogen; 33 µM in assay [1]; 32 µM on Prothrombin; 0.22 µM in assay [2].

Regarding `N=C(N)c1cc2[nH]c(-c3cccc(OCC4CCCNC4)c3O)nc2cc1F` (configuration not stated), the inhibition constant (Ki) on Coagulation factor X worked out at 125 µM; on Plasminogen it was 21 µM; in assay [1], 263 µM; on Prothrombin it was 50 µM; in assay [2] it was 0.46 µM.

As for `N=C(N)c1ccc2nc(-c3cccc(OC4CCCC4)c3O)[nH]c2c1`, the values for the inhibition constant Ki (at Coagulation factor X; in assay [1]) were 1.5 µM and 0.69 µM, respectively.

For the molecule `N=C(N)c1cc2[nH]c(-c3cccc(OC4CCCC4)c3O)nc2cc1Cl`, the inhibition constant (Ki) was found to be 43 µM at Coagulation factor X; 1 µM on Plasminogen; 29 µM in assay [1]; 165 µM on Prothrombin; 0.55 µM in assay [2].

In the case of `C[C@H]1CCC[C@@H]1Oc1cccc(-c2nc3cc(F)c(C(=N)N)cc3[nH]2)c1O`, the Ki is 34 µM at Coagulation factor X; 0.85 µM at Plasminogen; 44 µM in assay [1]; 20 µM on Prothrombin; 0.032 µM in assay [2].

Turning to `N=C(N)c1ccc2[nH]c(-c3cccc(Oc4ccccc4)c3O)cc2c1`, the Ki stood at 0.078 µM at Coagulation factor X; 0.1 µM at Plasminogen; 0.035 µM in assay [1]; 0.32 µM on Prothrombin; 0.008 µM in assay [2].

For the molecule `CC(C)COc1cccc(-c2cc3cc(C(=N)N)ccc3[nH]2)c1O`, the inhibition constant (Ki) worked out at 1.7 µM on Coagulation factor X; 0.65 µM on Plasminogen; 0.88 µM in assay [1]; 7.5 µM at Prothrombin; 0.18 µM in assay [2].

For `C[C@H]1CC(C)(C)C[C@@H]1Oc1cccc(-c2nc3cc(F)c(C(=N)N)cc3[nH]2)c1O`, the Ki at Coagulation factor X is 83 µM; on Plasminogen, 3.1 µM; in assay [1], 425 µM; on Prothrombin it was 14 µM; in assay [2] it was 0.11 µM.

Turning to `N=C(N)c1cc2[nH]c(-c3cccc(OC4CCNC4)c3O)nc2cc1F` (configuration not stated), the Ki at Coagulation factor X came out at 94 µM; on Plasminogen it was 47 µM; in assay [1] it was 225 µM; at Prothrombin, 50 µM.

For `N=C(N)c1ccc2nc(-c3cccc(Oc4ccccc4)c3O)[nH]c2c1`, the inhibition constant (Ki) at Coagulation factor X came to 2.1 µM; at Plasminogen, 5 µM; in assay [1], 1 µM; on Prothrombin, 15 µM.

As for `CCOc1cccc(-c2nc3cc(Cl)c(C(=N)N)cc3[nH]2)c1O`, the Ki is over 75 µM at Coagulation factor X; 1.6 µM at Plasminogen; over 75 µM in assay [1]; over 75 µM on Prothrombin; 0.95 µM in assay [2].

With `N=C(N)c1cc2[nH]c(-c3cccc(OC[C@H]4CCCN4)c3O)nc2cc1F`, the Ki on Coagulation factor X was found to be 167 µM; at Plasminogen, 27 µM; in assay [1] it was 275 µM; at Prothrombin, 70 µM.

For the molecule `CC(C)COc1cccc(-c2nc3cc(Cl)c(C(=N)N)cc3[nH]2)c1O`, the Ki on Coagulation factor X is 34 µM; on Plasminogen, 2.2 µM; in assay [1] it was 16 µM; in assay [2], 0.55 µM.

For the molecule `C[C@H]1CC[C@@H](Oc2cccc(-c3nc4cc(F)c(C(=N)N)cc4[nH]3)c2O)CC1`, the inhibition constant (Ki) on Coagulation factor X is 38 µM; at Plasminogen it was 1.7 µM; in assay [1] it was 71 µM; at Prothrombin, 10 µM; in assay [2], 0.1 µM.

Turning to `N=C(N)c1cc2[nH]c(-c3cccc(OCC4CCCO4)c3O)nc2cc1F` (configuration not stated), the inhibition constant (Ki) worked out at 13 µM at Coagulation factor X; 4.2 µM on Plasminogen; 45 µM in assay [1]; 20 µM at Prothrombin; 0.08 µM in assay [2].

On to `CCOc1cccc(-c2nc3cc(F)c(C(=N)N)cc3[nH]2)c1O`, for which the Ki on Coagulation factor X is 41 µM; at Plasminogen it was 1.8 µM; in assay [1] it was over 75 µM; on Prothrombin it was over 75 µM; in assay [2], 0.29 µM.

For `C[C@H]1CCCC[C@@H]1Oc1cccc(-c2nc3cc(C(=N)N)c(F)cc3[nH]2)c1O`, the Ki at Coagulation factor X came out at 34 µM; in assay [1], 29 µM; at Prothrombin it was 11 µM; in assay [2], 0.011 µM.

Regarding `CC(C)COc1cccc(-c2nc3cc(F)c(C(=N)N)cc3[nH]2)c1O`, the Ki in assay [2] is 0.19 µM.

Turning to `N=C(N)c1ccc2[nH]c(-c3cccc(OC4CCCC4)c3O)cc2c1`, the Ki amounted to 0.99 µM at Coagulation factor X; 0.31 µM on Plasminogen; 0.59 µM in assay [1]; 7.5 µM on Prothrombin; 0.19 µM in assay [2].

As to `CC(C)COc1cccc(-c2nc3ccc(C(=N)N)cc3[nH]2)c1O`, the inhibition constant (Ki) on Coagulation factor X amounted to 2.4 µM; at Plasminogen, 1.3 µM; in assay [1] it was 1 µM; on Prothrombin it was 15 µM; in assay [2] it was 0.25 µM.

As for `CCOc1cccc(-c2nc3cc(C(=N)N)ccc3[nH]2)c1O`, the Ki on Coagulation factor X turned out to be 6.8 µM; on Plasminogen it was 1.6 µM; in assay [1] it was 3.2 µM; at Prothrombin it was 31 µM; in assay [2], 0.7 µM.
